Experiments:
[1] = Stock solution stability (bioanalytical stock solutions); format: physicochemical; conditions: polypropylene container
[2] = Nonclinical PK/PD study of low-dose dasatinib in NS and NSML mice for hypertrophic cardiomyopathy; conditions: mouse, in vivo, doses 0.05 mg/kg to 0.5 mg/kg, based on exposure-response relationship, read-out: suggested potential target AUC for cardiac rescue
Protocol: A nonclinical study in mice was conducted to determine the PK and PD properties of a low-dose treatment of dasatinib in NS and NSML mice for the treatment of Hypertrophic cardiomyopathy (HCM). The goal was to establish in the same mouse model concurrent PK data and to correlate that with the endpoints of HCM using qPCR and immunoblotting. PK properties obtained from these mice were determined by Kana Mizuno and Alexander A. Vinks at Cincinnati Children's Hospital Medical Center. Dasatinib PK profiles and exposures (expressed as area under the concentration time curve; AUC) at doses ranging from 0.05 mg/kg to 0.5 mg/kg were estimated in NS and NSML mice. Based on the exposure-response relationship, potential target exposures to protect cardiac function were identified.

Compound | Stock Stability ([1]; storage temperature 22° C.) [h] | Stock Stability ([1]; storage temperature −20° C.) [h] | AUC [2] [ng·h/mL]
[2H]C1([2H])N(CCO)C([2H])([2H])C([2H])([2H])N(c2cc(Nc3ncc(C(=O)Nc4c(C)cccc4Cl)s3)nc(C)n2)C1([2H])[2H] [Dasatinib-D8] | 25 | 1010 | –
Cc1nc(Nc2ncc(C(=O)Nc3c(C)cccc3Cl)s2)cc(N2CCN(CCO)CC2)n1 [Dasatinib] | 25 | 1010 | 12 to 24
